Results: US20010029304A1, “Cyclopentane heptan (ENE)OIC acid, 2-heteroarylalkenyl derivatives as therapeutic agents” (ALLERGAN, priority 1996, published 2001)

Columns and labels:
EP4 = target: T1, EP4 (Oryctolagus cuniculus, UniProt Q28691); assay: EP4-activity: relaxation of smooth muscle of isolated rabbit jugular vein; type: cell-based; conditions: nM printed only with EC50 in the table head
T1 construct: smooth muscle of isolated rabbit jugular vein; from tissue; host or cells: isolated rabbit jugular vein smooth muscle
Method: (§1) Activity at different prostanoid receptors was measured in vitro in isolated smooth muscle preparations. FP-activity was measured as contraction of the isolated feline iris sphincter. EP4-activity was measured as relaxation of smooth muscle of isolated rabbit jugular vein. TP-vasoconstrictor activity was measured as contraction of rings of the isolated rat thoracic aorta. Effects on platelets from healthy human donors were measured by incubating platelet-rich plasma with the compounds described herein. Inhibition of aggregation was determined by the ability of the compounds described herein to inhibit platelet aggregation in platelet-rich plasma induced by 20 μM adenosine diphosphate (ADP).

Dog intraocular pressure = Dog intraocular pressure (applanation pneumatonometry) with hyperemia/miosis; type: in vivo; conditions: for Dog IOP (1 day): 25 μl to the ocular surface, IOP before and at 6 hours after drug; for Hyp: first part of Hyp/Mlosis cell; for Mlosis: second part of Hyp/Mlosis cell
Method: The compounds were prepared at the said concentrations in a vehicle comprising 0.1% polysorbate 80 and 10 mM tris (hydroxy methyl) aminomethane hydrochloride (TRIS) base. Dogs were treated by administering 25 μl to the ocular surface, the contralateral eye received vehicle as a control. Intraocular pressure was measured by applanation pneumatonometry. Dog intraocular pressure was measured immediately before drug administration and at 6 hours thereafter.

TP = target: T2, TP (Rattus norvegicus, UniProt P34978); assay: TP-vasoconstrictor activity: contraction of rings of the isolated rat thoracic aorta; type: cell-based; conditions: EC50 (nM) printed in the first part of the table head
T2 construct: rings of the isolated rat thoracic aorta; from tissue; host or cells: rings of isolated rat thoracic aorta
T2 sequence (P34978 1-341): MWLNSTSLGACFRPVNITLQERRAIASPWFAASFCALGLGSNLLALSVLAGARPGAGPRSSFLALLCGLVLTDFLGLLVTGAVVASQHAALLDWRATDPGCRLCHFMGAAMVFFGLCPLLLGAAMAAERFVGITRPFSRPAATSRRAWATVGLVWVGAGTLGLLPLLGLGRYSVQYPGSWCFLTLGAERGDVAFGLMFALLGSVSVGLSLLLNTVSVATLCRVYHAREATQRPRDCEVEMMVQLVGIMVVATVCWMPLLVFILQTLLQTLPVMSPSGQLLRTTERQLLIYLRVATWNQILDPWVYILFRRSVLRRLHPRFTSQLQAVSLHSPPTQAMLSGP
Method: as §1

T1 sequence (Q28691 whole entry): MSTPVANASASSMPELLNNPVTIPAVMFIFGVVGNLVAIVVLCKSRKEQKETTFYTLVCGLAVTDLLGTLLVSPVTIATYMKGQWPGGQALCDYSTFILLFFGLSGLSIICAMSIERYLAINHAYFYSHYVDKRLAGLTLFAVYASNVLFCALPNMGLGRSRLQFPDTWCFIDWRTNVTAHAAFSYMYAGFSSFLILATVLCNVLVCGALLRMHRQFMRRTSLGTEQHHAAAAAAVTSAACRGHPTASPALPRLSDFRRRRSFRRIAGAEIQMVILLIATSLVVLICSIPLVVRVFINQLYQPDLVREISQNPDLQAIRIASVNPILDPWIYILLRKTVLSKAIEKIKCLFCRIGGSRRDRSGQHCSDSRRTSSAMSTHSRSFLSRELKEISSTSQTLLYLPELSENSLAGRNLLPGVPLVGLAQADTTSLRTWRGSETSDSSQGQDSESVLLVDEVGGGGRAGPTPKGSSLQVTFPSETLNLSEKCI

Row | SMILES | IC25 EP4 (EP4) [nM] | Dog IOP (1 day) (Dog intraocular pressure; 0.01%) | Hyp (Dog intraocular pressure; 0.01%) | Mlosis (Dog intraocular pressure; 0.01%) | Dog IOP (1 day) (Dog intraocular pressure; 0.1%) | Hyp (Dog intraocular pressure; 0.1%) | Mlosis (Dog intraocular pressure; 0.1%) | EC50 (TP) [nM]
1 | COC(/C=C/C1C(O)CC(O)[C@@H]1C/C=C\CCCC(=O)O)CCc1ccsc1C (some centres unmarked) | 100 | – | – | – | – | – | – | –
2 | NC(=O)CCC/C=C\C[C@H]1C(O)CC(O)C1/C=C/C(O)CCc1ccco1 (some centres unmarked) | 620 | −3.2 | 1.5 | pinpoint | −4.4 | 1.0 | pinpoint | –
3 | Cc1cc(CCC(O)/C=C/C2C(O)CC(O)[C@@H]2C/C=C\CCCC(N)=O)cs1 (some centres unmarked) | 1630 | – | – | – | 0.1%/−3.6 | 0.6 | pinpoint | –
4 | NC(=O)CCC/C=C\C[C@H]1C(O)CC(O)C1/C=C/C(O)CCc1cc(Br)c(Br)s1 (some centres unmarked) | 165 | – | – | – | – | – | – | –
5 | Cc1ccc(CCC(O)/C=C/C2C(O)CC(O)[C@@H]2C/C=C\CCCC(=O)O)o1 (some centres unmarked) | 23 | – | – | – | 0.1%/−2.7 | 1.13 | pinpoint | > 10000
6 | O=C(O)CCC/C=C\C[C@H]1C(O)CC(O)C1/C=C/C(O)CCc1cc(Br)c(Br)s1 (some centres unmarked) | 23 | – | – | – | – | – | – | 692
7 | O=C(O)CCC/C=C\C[C@H]1C(O)CC(O)C1/C=C/C(O)CCc1sc2ccccc2c1Cl (some centres unmarked) | 21190 | – | – | – | – | – | – | –
8 | COC(/C=C/C1C(O)CC(O)[C@@H]1C/C=C\CCCC(=O)O)CCc1ccco1 (some centres unmarked) | 57 | – | – | – | – | – | – | –
9 | Cc1ccc(CCC(O)/C=C/C2C(O)CC(O)[C@@H]2C/C=C\CCCC(N)=O)o1 (some centres unmarked) | 3760 | – | – | – | 0.1%/−2.1 | 0.75 | pinpoint | –
